Source: ChEMBL document CHEMBL1201862, “PubChem BioAssay data set” (2004)
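These data come from cells grown in 96-well plates and exposed to compound for 48 hours at five concentrations. The concentration for 50% growth inhibition is given as GI50.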 The source made the active and inactive calls. Rule as the data show it: active = GI50 up to about 1.1 µM and inactive = higher.

Key:
Test in all cases: NCI anticancer screen, dose series, 48 h
U-251 = tested on: U-251
HCC 2998 = tested on: HCC 2998
COLO 205 = tested on: COLO 205
HT-29 = tested on: HT-29
SN12C = tested on: SN12C
SW-620 = tested on: SW-620
NCI/ADR-RES = tested on: NCI/ADR-RES
DU-145 = tested on: DU-145
T47D = tested on: T47D
HL-60 = tested on: HL-60
IGROV-1 = tested on: IGROV-1
NCI-H522 = tested on: NCI-H522
EKVX = tested on: EKVX
HCT-116 = tested on: HCT-116
MDA-MB-231 = tested on: MDA-MB-231
SF-539 = tested on: SF-539
OVCAR-3 = tested on: OVCAR-3
TK-10 = tested on: TK-10
KM12 = tested on: KM12
CCRF-CEM = tested on: CCRF-CEM

Compound	GI50 (U-251)	GI50 (HCC 2998)	GI50 (COLO 205)	GI50 (HT-29)	GI50 (SN12C)	GI50 (SW-620)	GI50 (NCI/ADR-RES)	GI50 (DU-145)	GI50 (T47D)	GI50 (HL-60)	GI50 (IGROV-1)	GI50 (NCI-H522)	GI50 (EKVX)	GI50 (HCT-116)	GI50 (MDA-MB-231)	GI50 (SF-539)	GI50 (OVCAR-3)	GI50 (TK-10)	GI50 (KM12)	GI50 (CCRF-CEM)
O=C(/C=C/c1ccc(O)c(O)c1)OCCCc1ccccc1	11 µM (inactive)	20.4 µM (inactive)	12.4 µM (inactive)	21.9 µM (inactive)	11.9 µM (inactive)	12.6 µM (inactive)	8.39 µM (inactive)	14.1 µM (inactive)	16.4 µM (inactive)	1.07 µM (active)	3.34 µM (inactive)	0.851 µM (active)	25.8 µM (inactive)	10.6 µM (inactive)	11.8 µM (inactive)	2.45 µM (inactive)	1.71 µM (inactive)	–	–	–
Cc1nn(CN2CCN(C)CC2)c(=S)n1/N=C/c1ccc(-c2ccc(Cl)cc2Cl)o1	32.8 µM (inactive)	> 100 µM (inactive)	> 100 µM (inactive)	89.1 µM (inactive)	> 100 µM (inactive)	42.7 µM (inactive)	62.7 µM (inactive)	> 100 µM (inactive)	21.2 µM (inactive)	32.7 µM (inactive)	81.8 µM (inactive)	> 100 µM (inactive)	14.8 µM (inactive)	74.6 µM (inactive)	63.8 µM (inactive)	35.9 µM (inactive)	64 µM (inactive)	43.9 µM (inactive)	> 100 µM (inactive)	–
S=C(Nc1ccc2c(c1)oc1ccccc12)c1cccs1	30.5 µM (inactive)	> 100 µM (inactive)	> 100 µM (inactive)	3.66 µM (inactive)	> 100 µM (inactive)	> 100 µM (inactive)	> 100 µM (inactive)	40.8 µM (inactive)	3.37 µM (inactive)	> 100 µM (inactive)	37.1 µM (inactive)	20.8 µM (inactive)	38.5 µM (inactive)	> 100 µM (inactive)	21.7 µM (inactive)	26.2 µM (inactive)	23 µM (inactive)	> 100 µM (inactive)	–	> 100 µM (inactive)
O=C1c2ccccc2CCC1C(O)(C(F)(F)F)C(F)(F)F (stereo not given)	> 100 µM (inactive)	3.67 µM (inactive)	> 100 µM (inactive)	> 100 µM (inactive)	–	> 100 µM (inactive)	> 100 µM (inactive)	> 100 µM (inactive)	44.3 µM (inactive)	> 10 µM (inactive)	> 100 µM (inactive)	> 100 µM (inactive)	> 100 µM (inactive)	> 100 µM (inactive)	> 100 µM (inactive)	> 100 µM (inactive)	> 100 µM (inactive)	> 100 µM (inactive)	> 100 µM (inactive)	> 100 µM (inactive)
CC(C)(O)C1COC2=C1C(=O)c1ccccc1C2=O (stereo not given)	58.5 µM (inactive)	> 100 µM (inactive)	82 µM (inactive)	44.4 µM (inactive)	27.8 µM (inactive)	23 µM (inactive)	19.1 µM (inactive)	20.9 µM (inactive)	33.4 µM (inactive)	18.9 µM (inactive)	40.6 µM (inactive)	47.1 µM (inactive)	32.3 µM (inactive)	25.3 µM (inactive)	38.7 µM (inactive)	43.6 µM (inactive)	24.9 µM (inactive)	–	88.3 µM (inactive)	46.2 µM (inactive)
O=C1O/C(=C\c2ccccc2)N(c2ccccc2)C1=O	> 100 µM (inactive)	> 100 µM (inactive)	> 100 µM (inactive)	> 100 µM (inactive)	> 100 µM (inactive)	> 100 µM (inactive)	> 100 µM (inactive)	> 100 µM (inactive)	> 100 µM (inactive)	> 100 µM (inactive)	> 100 µM (inactive)	> 100 µM (inactive)	> 100 µM (inactive)	> 100 µM (inactive)	> 100 µM (inactive)	–	> 100 µM (inactive)	> 100 µM (inactive)	> 100 µM (inactive)	> 100 µM (inactive)
O=C(CC(=O)N1N=C(N2c3ccccc3Sc3ccccc32)CC1c1ccccc1)Nc1ccccc1Cl (stereo not given)	> 100 µM (inactive)	> 100 µM (inactive)	> 100 µM (inactive)	> 100 µM (inactive)	> 100 µM (inactive)	> 100 µM (inactive)	> 100 µM (inactive)	> 100 µM (inactive)	> 100 µM (inactive)	> 100 µM (inactive)	> 100 µM (inactive)	> 100 µM (inactive)	> 100 µM (inactive)	> 100 µM (inactive)	> 100 µM (inactive)	> 100 µM (inactive)	> 100 µM (inactive)	> 100 µM (inactive)	> 100 µM (inactive)	> 100 µM (inactive)
N#CCCN(CCC#N)CCN(CCN(CCC#N)CCC#N)CCN(CCC#N)CCC#N	> 100 µM (inactive)	> 100 µM (inactive)	> 100 µM (inactive)	> 100 µM (inactive)	> 100 µM (inactive)	> 100 µM (inactive)	> 100 µM (inactive)	> 100 µM (inactive)	> 100 µM (inactive)	> 100 µM (inactive)	> 100 µM (inactive)	> 100 µM (inactive)	> 100 µM (inactive)	> 100 µM (inactive)	> 100 µM (inactive)	> 100 µM (inactive)	> 100 µM (inactive)	> 100 µM (inactive)	–	–
